This experiment concerns BALB/c mice MPTP induced tremor. Description: MPTP-induced tremor in BALB/c mice. Format: in vivo. The conditions noted are these: extract 25 or 50 mg/kg, apomorphine 3 mg/kg. As to the method: Animals: Male adult mice, C57BL/6 and BALB/c strain (FEEPS) were used and maintain with water and foot ad libitum under controlled environment.
Treatments in BALB/c: MPTP (1-methyl-4-phenyl-1,2,3,6-tetrahydropyridine) 60 mg/kg (2×30 mg/kg) was administered intraperitonially (i.p.), twice, 16 h apart. Saline, DMSO 20%, Ptychopetalum olacoides extract 50 mg/kg (2×25 mg/kg), POEE 25 mg/kg (2×12.5 mg/kg) and apomorphine 3 mg/kg (2×1.5 mg/kg) were given 30 min before each MPTP administration. The animals received the first injections at 17:00 h and the second at 09:00 h the next day. The volume of injection was […] body weight. N=6.
Tremor in C57BL/6 and in BALB/c: Tremors were observed immediately after the administration of the second MPTP dose, with animals placed in a clear Plexiglas box (20 cm×20 cm×20 cm) for 45 min; tremor scores were noted every 3 min, with the highest score considered for the period. […]

Total tremor duration data for 1 molecule are collected here from patent US20110229553A1, “Plant Extract with Pharmacological Profile for Treating or Preventing Diseases, Dysfunctions and Disorders of the Central Nervous System, Neurodegenerative Disorders and Sequel from Vascular Dementia” (priority 2010, published 2011).

Molecules are shown by their SMILES.

Take `CN1CCc2cccc3c2[C@H]1Cc1ccc(O)c(O)c1-3` [apomorphine]: the total tremor duration result is reported as “not affected”.
